Results from BindingDB's records for doi:10.1021/jm950807f (University of Minnesota, 1996).

Experiment: Binding affinity against Delta Opioid receptor in Guinea pig brain membranes

| Structure (SMILES) | Ki [nM] |
| --- | --- |
| N[C@@]1(C2=N[C@]3(CC[C@@]4(O)[C@H]5Cc6ccc(O)c7c6C4(CCN5CC4CC4)[C@H]3O7)C(=O)N2)CC[C@@]2(O)[C@H]3Cc4ccc(O)c5c4C2(CCN3CC2CC2)[C@H]1O5 [(4S,5'R,13'R,17'S)-2-[(5R,13R,14R,17S)-14-amino-4-(cyclopropylmethyl)-10,17-dihydroxy-12-oxa-4-azapentacyclo[9.6.1.0^{1,13}.0^{5,17}.0^{7,18}]octadeca-7(18),8,10-trien-14-yl]-4'-(cyclopropylmethyl)-10',17'-dihydroxy-3,5-dihydro-12'-oxa-4'-azaspiro[imidazole-4,14'-pentacyclo[9.6.1.0^{1,13}.0^{5,17}.0^{7,18}]octadecane]-7',9',11'(18')-trien-5-one] | 1.24 |
| NC1=NC([C@]2(N)CC[C@@]3(O)[C@H]4Cc5ccc(O)c6c5C3(CCN4CC3CC3)[C@H]2O6)=N[C@]12CC[C@@]1(O)[C@H]3Cc4ccc(O)c5c4C1(CCN3CC1CC1)[C@H]2O5 [5-amino-2,4(Bis-4-cyclopropylmethyl-10,17-dihydroxy-(1S,5R,13R,17S)-12-oxa-4-azapentacyclo[9.6.1.01,13.05,17.07,18]octadeca-7(18),8,10-trien-14-one) imidazole] | 183 |
